How the values were obtained:
[1] = tested on: HeLa pTRE-LucIVS2-705 cells; assay: PNA705 mediated luciferase splice correction (luminescence per µg protein); type: cell-based, human; details: for PNA705 delivery efficiency in words (Fig. 2a): tested as CPP-PNA705 conjugate, up to 5 µM
Procedure: Cells were treated for 30 min in serum-free media at 37 °C, and then allowed to recover for 24 h in complete media. […] After 24 h, cell lysates were assayed for luciferase by luminescence (Fig. 2a) and for splice corrected mRNA by quantitative PCR (Fig. 2b). To control for total cell density, lysates were also analyzed for total protein by the BCA assay.
HeLa pTRE-LucIVS2-705 cells were seeded on flat-bottom 96-well plates at 10,000 cells per well in 200 µl complete DMEM. The following day, cells were washed in phosphate buffered saline and topped with premixed 50 µl 2× serum/phenol red-free DMEM (Gibco) + 50 µl peptide cleavage solution (ddH2O + peptide). Cells were transfected for 30 min at 37 °C with 5% CO2. The transfection solution was removed, cells were topped with 100 µl complete DMEM. The next day (24-h recovery) cells were washed in PBS. Cells were lysed in 20 µl reporter lysis buffer (Promega E4030) following the manufacturer’s protocol. A volume of 10 μl of lysate from each well was transferred to a 96-well solid black plate; 100 μl of luciferase assay reagent from the Luciferase Assay System (Promega E1500) was added, the plate was agitated for 10 s, and luminescence was measured with a BioTek Synergy 2 plate reader with injector ports. Total protein was measured with a BCA assay (described below). Data were expressed as RLU per µg protein (RLU (µg protein)^−1). During screening, positive wells were defined as those whose RLU per µg protein values exceeded the average for the plate by at least three standard deviations. Subsequent PNA705 delivery experiments were conducted as described above except that volumes were scaled for 24-well plate format.
The remaining 10 µl of lysate from the splice correction assay was combined with 100 µl of the BCA reagents and incubated for 1–4 h at 37 °C per the manufacturer’s protocol. Absorbance at 562 nm was measured using a measured with a BioTek Synergy 2 plate reader.

[2] = tested on: HeLa, RAW264.7, HepG2, and MCF-7 cells; assay: TAMRA delivery, flow cytometry and confocal microscopy, statements over several cell types or cell type not stated; type: cell-based; details: cell type and temperature not stated; threshold just above cells treated with free TAMRA; single example
Procedure: Parent and daughter sequences lacking the PNA cargo were characterized to determine the effect of the cargo on delivery. Sequences were labeled with the fluorophore tetramethylrhodamine (TAMRA) on a C-terminal cysteine residue (PDEP-TA) and their delivery to multiple human cell types was measured by flow cytometry. To test the efficiency under stringent conditions, we used peptide concentrations of only 5 μM total containing 0.5 μM dye-labeled peptide. Peptides were incubated with HeLa, RAW264.7, HepG2, and MCF-7 cells for 30 min at 4 °C, 21 °C, or 37 °C, followed by trypsinization to detach cells for counting and to digest any externally bound peptide. […]. […]
HeLa, RAW264.7, HCT116, HepG2, and MCF-7 cells were plated in 12-well plates at 100,000 cells/well. […] Cells were transferred to a filter-topped flow cytometry tube and analyzed on a BD LSR II flow cytometer. Cells displaying a normal morphology were gated and first analyzed for GFP fluorescence using the […] laser. GFP-negative cells were used to generate a histogram of TAMRA fluorescence, measured with the […] laser. […]
Cells were treated as described above for the TAMRA delivery assay and immediately imaged to avoid artifacts resulting from fixation. The distribution of TAMRA and Sytox Green was analyzed using a confocal scanning Nikon Eclipse Ti2 inverted microscope using a 40× oil-immersion objective. […]

RAW264.7 cells = assay: TAMRA delivery assay, flow cytometry; type: cell-based; details: tested as peptide-TA; 0.5 µM peptide-TA + 4.5 µM peptide-C, 30 min, serum-free DMEM, trypsinized, live SYTOX Green-negative cells; temperature not given
Procedure: Parent and daughter sequences lacking the PNA cargo were characterized to determine the effect of the cargo on delivery. Sequences were labeled with the fluorophore tetramethylrhodamine (TAMRA) on a C-terminal cysteine residue (PDEP-TA) and their delivery to multiple human cell types was measured by flow cytometry. To test the efficiency under stringent conditions, we used peptide concentrations of only 5 μM total containing 0.5 μM dye-labeled peptide. Peptides were incubated with HeLa, RAW264.7, HepG2, and MCF-7 cells for 30 min at 4 °C, 21 °C, or 37 °C, followed by trypsinization to detach cells for counting and to digest any externally bound peptide. PDEP-TA conjugates are not toxic at this concentration range (Supplementary Figure 2). […]
HeLa, RAW264.7, HCT116, HepG2, and MCF-7 cells were plated in 12-well plates at 100,000 cells/well. […] Cells were transferred to a filter-topped flow cytometry tube and analyzed on a BD LSR II flow cytometer. Cells displaying a normal morphology were gated and first analyzed for GFP fluorescence using the […] laser. GFP-negative cells were used to generate a histogram of TAMRA fluorescence, measured with the 543 nM laser.
Supplementary Figure 4. […] The percent of the remaining cells testing positive for TAMRA fluorescence were defined as those with a fluorescence value ≥3000. Additionally, the mean fluorescence for all SYTOX negative cells was recorded.

MCF-7 cells = assay: TAMRA delivery assay, flow cytometry; type: cell-based, human; details: tested as peptide-TA; 0.5 µM peptide-TA + 4.5 µM peptide-C, 30 min, serum-free DMEM, trypsinized, live SYTOX Green-negative cells; temperature not given
Procedure: (§1) Parent and daughter sequences lacking the PNA cargo were characterized to determine the effect of the cargo on delivery. Sequences were labeled with the fluorophore tetramethylrhodamine (TAMRA) on a C-terminal cysteine residue (PDEP-TA) and their delivery to multiple human cell types was measured by flow cytometry. To test the efficiency under stringent conditions, we used peptide concentrations of only 5 μM total containing 0.5 μM dye-labeled peptide. Peptides were incubated with HeLa, RAW264.7, HepG2, and MCF-7 cells for 30 min at 4 °C, 21 °C, or 37 °C, followed by trypsinization to detach cells for counting and to digest any externally bound peptide. PDEP-TA conjugates are not toxic at this concentration range (Supplementary Figure 2). Flow cytometric analysis (Fig. 3 and Supplementary Figure 4) was used to count TAMRA-positive cells and to measure TAMRA intensity distributions. Confocal microscopy was used to visualize peptide distribution in cells for each cell type (Fig. 3). Time series confocal images of PDEP P17-TA incubated HeLa cells at 21 °C and 37 °C (Fig. 3a) show immediate punctate membrane association. At 37 °C, but not at 21 °C, uptake of dye in punctate structures is observed. At both temperatures, individual cells rapidly and stochastically show the appearance of TAMRA with a diffuse cytosolic distribution in addition to bright puncta. All PDEPs behave similarly and maximum intensity is reached by 30 min at all temperatures. Cell surface-bound peptide is not observed under flow cytometry conditions (Fig. 3a).
(§2) HeLa, RAW264.7, HCT116, HepG2, and MCF-7 cells were plated in 12-well plates at 100,000 cells/well. After 24 h, cells were gently washed in PBS, topped with 500 µl of PDEP-TA solution containing 0.5 µM PDEP-TA + 4.5 µM PDEP-C in sfDMEM without phenol red, and incubated for 30 min at either 4 °C, 23 °C, or 37 °C. […] Cells were transferred to a filter-topped flow cytometry tube and analyzed on a BD LSR II flow cytometer. Cells displaying a normal morphology were gated and first analyzed for GFP fluorescence using the […] laser. GFP-negative cells were used to generate a histogram of TAMRA fluorescence, measured with the […] laser.
(§3) Supplementary Figure 4. Flow cytometry gating strategy for Peptide-C-TA treated cells. In this example, HeLa cells were treated with 5 μM P17-C-TA for 30 minutes at 37°C. Live cells were identified by forward and side scatter. Doublets were excluded in two gating steps using SSC-H x SSC-W and FSC-H x FSC-W. Cells with compromised membranes permitting SYTOX green entry were excluded. The percent of the remaining cells testing positive for TAMRA fluorescence were defined as those with a fluorescence value ≥3000. Additionally, the mean fluorescence for all SYTOX negative cells was recorded.

HepG2 cells = assay: TAMRA delivery assay, flow cytometry; type: cell-based, human; details: tested as peptide-TA; 0.5 µM peptide-TA + 4.5 µM peptide-C, 30 min, serum-free DMEM, trypsinized, live SYTOX Green-negative cells; temperature not given
Procedure: as §1, §2, §3

HeLa cells = assay: TAMRA delivery assay, flow cytometry; type: cell-based, human; details: tested as peptide-TA; 0.5 µM peptide-TA + 4.5 µM peptide-C, 30 min, serum-free DMEM, trypsinized, live SYTOX Green-negative cells; temperature not given
Procedure: as §1, §2, §3

[3] = tested on: HeLa pTRE-LucIVS2-705 cells; assay: qRT-PCR of correctly spliced luciferase mRNA; type: cell-based, human; details: 1.25 µM CPP-PNA705, 30-min incubation, 24-h recovery
Procedure: To quantify splice correction at the mRNA level, we designed qRT-PCR primers to target the splice junction of the properly spliced mRNA transcript. […] We observe a >100 fold increase in properly spliced luciferase mRNA in cells treated with PDEP–PNA705 relative to control. At 5 μM, the most efficient chimera, P14-PNA705, is 30-fold better than tat, 7-fold better than penetratin, and 4-fold better than Arg9.
HeLa pTRE-LucIVS2 cells were treated as described above with PDEP–PNA705 constructs at varying concentrations. RNA was extracted using the Direct-Zol^TM RNA purification system (Zymo Research) and reverse transcribed with the iScript cDNA synthesis kit (Bio-Rad), and mRNA splice correction was detected using PowerUp SYBR Green master mix (ThermoFisher) on an Applied Biosystems QuantStudio 6 using the following primers sets: […]
The relative quantification of correctly spliced mRNA (90 bp amplicon) over background was calculated using the Pfaffl model.

Compound | PNA705 delivery efficiency, head-to-head comparison in the response to reviewers ([1]; PepB-PNA705, P17-PNA705, tat-PNA705 and no treatment, same approach as in the paper) | PNA705 delivery efficiency in words (Fig. 2a) [1] | TAMRA-positive cells, example flow cytometry results (Fig. 3b) [2] | RAW %+ (TAMRA-positive cells) (RAW264.7 cells) | MCF-7 %+ (TAMRA-positive cells) (MCF-7 cells) | HEPG2 %+ (TAMRA-positive cells) (HepG2 cells) | HeLa %+ (TAMRA-positive cells) (HeLa cells) | increase in corrected mRNA over control [3]
(RXRRBR)2 [Peptide B, (RXRRBR)2, eight arginines and four linear linkers; drives delivery of splice correcting PMOs in vivo] | much more efficient than tat | relatively low PNA delivery efficiency |  |  |  |  |  | 
CN(C)c1ccc2c(-c3ccccc3C(=O)[O-])c3ccc(N(C)C)cc3[o+]c2c1 [TAMRA, tetramethylrhodamine] |  |  | 1.99% | 6.90% | 14.4% | 0.0% | 0.0% | 
Arg9 |  | much better than tat itself |  | 64.5% | 1.6% | 16.6% | 8.1% | not measurably higher than control
